Key:
[1] = tested on: Akt3; test: Quantification of nuclear Akt3 immunofluorescence in mammary epithelial cells (HMEC); type: cell-based, human; conditions: 600 nM BGB324 (Axl TKI), 1 uM imatinib (cKit TKI), versus vehicle (DMSO), *P<0.05
From the text: Culturing of MDA-MB-231 cells was as described in Example 3. Primary human mammary epithelial cells (HMEC) were isolated as described (Garbe J C, Pepin F, Pelissier F A, Sputova K, Fridriksdottir A J, Guo D E, Villadsen R, Park M, Petersen O W, Borowsky A D, Stampfer M R, Labarge M A. Accumulation of multipotent progenitors with a basal differentiation bias during aging of human mammary epithelia. Cancer Res. 2012 Jul. 15; 72(14):3687-701) Localization of Akt3 (anti-Akt3-FITC, top panels) in MDA-MB-231 and primary human mammary epithelial cells (HMEC) as in Example 17. Nucleus was stained by DAPI (lower panels). Bar: 50 micron

[2] = tested on: Akt3; test: SureFire assay detecting activated (phosphorylated) Akt3 in cells; type: cell-based; conditions: 10 nM insulin for 10 minutes
Description: A SureFire assay was used to specifically detect activated (phosphorylated) Akt3 in WM115, MCF7 and LNCaP cells. Briefly cells were lysated, and antibodies recognizing phosphorylated Akt (p473) and Akt3 were coupled to acceptor and donor beads as described by the manufacturer (PerkinElmer). Cells were either unstimulated or stimulated with 10 nM insulin for 10 minutes to activate Akt.

[3] = tested on: Akt; test: Immunoblot of Akt activation (pAkt) in transduced MCF10A cells treated with Akt inhibitor; type: cell-based, human; conditions: inhibitor 10 μM, 12 hours
Description: (§1) MCF10A cells were cultured and transduced with retroviral constructs expressing myrAkt1, MyrAkt3 or Slug as described in FIGS. 1 and 3. The cells were treated with Akt inhibitors LY294002 (10 μM, Cell Signaling Technology, Cat. #9901) and Akt VIII (10 μM, Merck, Cat. #124018) for 12 hours as indicated. Cells were then either visualized at indicated magnification by phase-contrast microscopy, or seeded for invasive growth in 3D Matrigel as described in Example 3.
(§2) MCF10A cells were cultured and transduced with retroviral constructs expressing myrAkt1, MyrAkt3 or Slug as described in FIGS. 1 and 3. The cells were treated with Akt inhibitor as described in FIG. 6. SDS/PAGE, immunoblotting and antibodies as described in Examples 1 and 4.

[4] = tested on: MCF10A cells; test: Mesenchymal phenotype in 2D growth and invasive growth in 3D Matrigel of transduced MCF10A cells treated with Akt inhibitors; type: cell-based, human; conditions: inhibitor 10 μM, 12 hours
Description: as §1

[5] = tested on: MCF10A cells; test: Immunoblot of EMT markers (N-cadherin, vimentin, E-cadherin) in transduced MCF10A cells treated with Akt inhibitor; type: cell-based, human; conditions: inhibitor 10 μM, 12 hours
Description: as §1, §2

Compound: Nc1nc(Nc2ccc3c(c2)CC[C@@H](N2CCCC2)CC3)nn1-c1cc2c(nn1)-c1ccccc1CCC2 [BGB324, 1-(6,7-dihydro-5H-benzo[6,7]cyclohepta[1,2-c]pyridazin-3-yl)-N3-((7-(S)-pyrrolidin-1-yl)-6,7,8,9-tetrahydro-5H-benzo[7]annulene-2-yl)-1H-1,2,4-triazole-3,5-diamine]
- Akt3 nuclear localization [1]: inhibit

Compound: insulin: stimulus used to activate Akt in the SureFire assay
- Akt3 activity (phosphorylation) signal ([2]; LNCaP prostate cells): no signal
- Akt3 activity (phosphorylation) signal ([2]; MCF7 breast epithelial cells): no signal
- Akt3 activity (phosphorylation) ([2]; WM115 melanoma cells): significantly induce

Compound: O=c1[nH]c2ccccc2n1C1CCN(Cc2ccc(-c3nc4cc5nc[nH]c5cc4nc3-c3ccccc3)cc2)CC1 [AKT VIII]
- Akt activation (pAkt) [3]: fully inhibit
- mesenchymal phenotype induced by Akt3 ([4]; MCF10A cells expressing MyrAkt3): inhibit
- mesenchymal/invasive phenotype induced by Slug in 2D and 3D growth ([4]; MCF10A cells expressing Slug, 2D culture and 3D Matrigel): inhibit
- mesenchymal marker N-cadherin expression [5]: significant reduction
- mesenchymal marker vimentin expression [5]: significant reduction
- re-expression of the epithelial marker E-cadherin [5]: Neither inhibitor led to re-expression
- reversal of the mesenchymal phenotype / inhibition of EMT [5]: partially reverse

— US10317405B2, “Methods of detecting Akt3 and administering Ax1 inhibitor” (BERGENBIO ASA, priority 2012, dated 2019)
